# Test results published in paper PMC8236048, “Pharmaceutical design of a delivery system for the bacteriocin lacticin 3147” (Drug Delivery and Translational Research, 2021).
# System: L. monocytogenes ATCC1916
# Assay: Well diffusion assay after incubation with α-chymotrypsin
# Assay type: cell-based
# Method: α-SLN and β-SLN were filtered using a 0.2-µm PES filter, and 25 µl of each were added to the same well of a 96-well plate. About 50 µl of a 50 mg/ml solution of α-chymotrypsin was added to these wells. A blank was set up with 50-µl water instead of α-chymotrypsin. This was repeated for free peptide solutions prepared as outlined above. The 96-well plate was incubated for 3 h at 37 °C. The 96-well plate was then removed from the incubator, and 25 µl of each solution was added in triplicate to 6-mm wells on TSA (6 g/L yeast) plates inoculated with 200 µl L. monocytogenes ATCC1916. The plates were incubated at 37 °C for 24 h, after which the inhibition zones were measured using an electronic Vernier callipers.
substance,measurement,setting,value
lacticin 3147,"zone of inhibition after incubation with α-chymotrypsin, single well","Fig. 11, first value printed in the picture of the plate",6 mm
same,"zone of inhibition after incubation with α-chymotrypsin, single well","Fig. 11, second value printed in the picture of the plate",6.1 mm
same,"zone of inhibition after incubation with α-chymotrypsin, single well","Fig. 11, third value printed in the picture of the plate",6 mm
